This note sets out measurements from ChEMBL document CHEMBL1136667, “Inhibitors of Abeta production: solid-phase synthesis and SAR of alpha-hydroxycarbonyl derivatives” (Bioorg Med Chem Lett, 2003).

The structures appear in SMILES notation. A value given as a limit tells only on which side of the number the result lay.

The assay deals with Gamma-secretase. Description: Inhibition of amyloid beta protein production in transfected H4 (neuroglioma) cells expressing […] constructs. The format is functional, cell-based, Homo sapiens.
By IC50 is commonly meant the point on the concentration scale where inhibition reaches its midpoint. Turning to `CCOC(=O)[C@H](O)[C@H](CC1CCCCC1)NC(=O)[C@@H](NC(=O)C(=O)c1ccccc1)C(C)C`, the 50% inhibitory concentration (IC50) was determined as 3300 nM. In turn, `CCOC(=O)[C@H](O)[C@H](CC1CCCCC1)NC(=O)[C@@H](NC(=O)Cc1ccccc1F)C(C)C` yielded an IC50 of 17000 nM. Turning to `CC(C)CCC(=O)N[C@@H](CC(C)C)C(=O)N[C@@H](CC1CCCCC1)[C@@H](O)C(=O)C(C)C`, the IC50 turned out to be 550 nM. `CCOC(=O)[C@H](O)[C@H](CC1CCCCC1)NC(=O)[C@@H](NC(=O)/C=C/c1ccccc1)C(C)C` had a half-inhibitory concentration (IC50) of 5000 nM. Compound `CC(=O)[C@H](O)[C@H](CC1CCCCC1)NC(=O)[C@H](CC(C)C)NC(=O)Cc1cc(F)cc(F)c1` yielded a half-maximal inhibitory concentration (IC50) of 180 nM. With `CCOC(=O)[C@H](O)[C@H](CC1CCCCC1)NC(=O)[C@H](CC(C)C)NC(=O)Cc1ccc(F)cc1`, 1800 nM corresponded to half-maximal inhibition (IC50). In turn, `CC(=O)[C@H](O)[C@H](CC1CCCCC1)NC(=O)[C@H](CC(C)C)NC(=O)Cc1ccccc1` returned an IC50 of 900 nM. With `CCOC(=O)[C@H](O)[C@H](CC1CCCCC1)NC(=O)[C@H](NC(=O)Cc1ccccc1)C(C)C`, the IC50 was over 25000 nM. As to `CC(C)C[C@H](NC(=O)Cc1ccccc1)C(=O)N[C@@H](CC1CCCCC1)[C@@H](O)C(=O)O`, the IC50 worked out at 15000 nM.

`CC(C)C[C@H](NC(=O)Cc1ccccc1)C(=O)N[C@@H](CC1CCCCC1)[C@@H](O)C(=O)Cc1ccccc1`: the IC50 came out at 400 nM.

Regarding `CC(=O)[C@H](O)[C@H](CC1CCCCC1)NC(=O)[C@H](CC(C)C)NC(=O)CCC(C)C`, 620 nM corresponded to half-maximal inhibition (IC50).

Turning to `CCCC(=O)[C@H](O)[C@H](CC1CCCCC1)NC(=O)[C@H](CC(C)C)NC(=O)Cc1ccccc1`, the concentration for half-maximal inhibition (IC50) stood at 600 nM. `CC(C)C[C@H](NC(=O)Cc1ccccc1)C(=O)N[C@@H](CC1CCCCC1)[C@@H](O)C(=O)c1ccccc1` yielded an IC50 of 900 nM.

Regarding `CC(C)CCC(=O)N[C@@H](CC(C)C)C(=O)N[C@@H](CC1CCCCC1)[C@@H](O)C(=O)c1ccccc1`, the concentration for half-maximal inhibition (IC50) was 4500 nM. With `CCOC(=O)[C@H](O)[C@H](CC1CCCCC1)NC(=O)[C@H](CC(C)C)NC(=O)Cc1ccccc1`, the IC50 is 1600 nM. Turning to `CCOC(=O)[C@H](O)[C@H](CC1CCCCC1)NC(=O)[C@H](Cc1ccccc1)NC(=O)Cc1ccccc1`, the IC50 is 15000 nM. Next, `CCOC(=O)[C@H](O)[C@H](CC1CCCCC1)NC(=O)[C@@H](NC(=O)Cc1ccccc1)C(C)C`: 3400 nM; `CCOC(=O)[C@H](O)[C@H](CC1CCCCC1)NC(=O)[C@H](CC(C)C)NC(=O)CCC(C)C`: 1500 nM; `CCOC(=O)[C@H](O)[C@H](CC1CCCCC1)NC(=O)[C@H](CC(C)C)NC(=O)Cc1cc(F)cc(F)c1`: 450 nM.

Consider `CCOC(=O)[C@H](O)[C@H](CC1CCCCC1)NC(=O)[C@H](CC(C)C)NC(=O)Cc1cccc(F)c1`, for which it took 920 nM to reach half-maximal inhibition (IC50).

For `CCOC(=O)[C@H](O)[C@H](CC1CCCCC1)NC(=O)[C@@H](NC(=O)C1(c2ccccc2)CC1)C(C)C`, the half-inhibitory concentration (IC50) was over 25000 nM. As to `CC(C)C[C@H](NC(=O)Cc1cc(F)cc(F)c1)C(=O)N[C@@H](CC1CCCCC1)[C@@H](O)C(=O)Cc1ccccc1`, the 50% inhibitory concentration (IC50) was 160 nM. Compound `CC(C)CCC(=O)N[C@@H](CC(C)C)C(=O)N[C@@H](CC1CCCCC1)[C@@H](O)C(=O)Cc1ccccc1` returned an IC50 of 300 nM. Regarding `CCOC(=O)[C@H](O)[C@H](CC1CCCCC1)NC(=O)[C@@H](NC(=O)c1ccccc1)C(C)C`, the IC50 is over 25000 nM. As to `CC(C)C[C@H](NC(=O)Cc1cccc(F)c1)C(=O)N[C@@H](CC1CCCCC1)[C@@H](O)C(=O)Cc1ccccc1`, the midpoint of inhibition, the IC50, lay at 400 nM. The compound `CCCC(=O)[C@H](O)[C@H](CC1CCCCC1)NC(=O)[C@H](CC(C)C)NC(=O)CCC(C)C` yielded a half-maximal inhibitory concentration (IC50) of 580 nM.
